Data as given in PMC11478212, “Antitumoral and Antiproliferative Potential of Synthetic Derivatives of Scorpion Peptide IsCT1 in an Oral Cavity Squamous Carcinoma Model” (Molecules, 2024).
“And” between values parts separate entries of the source, which are not always exact repeats. Equal values may be shown once. “Also recorded” adds a separate entry of the source. Read-outs that look alike come from different tables or passages of the source.

Experiments:
SCC-25 tumor cells = experiment: Mitochondrial membrane electrical potential (ΔΨm) by flow cytometry; type: cell-based; settings: 24 h, IsCT-P and AC-AFPK-IsCT1 at IC50, others 100 µM, MitoRed, mean ± SD of three independent experiments
Method: (§1) Figure 4 Analysis of mitochondrial electrical potential (ΔΨm) using flow cytometry following a 24 h treatment with synthetic analogs of IsCT1 peptides. The indicated cells were treated at the IC50 values obtained for the IsCT-P and AC-AFPK-IsCT1 peptides and at a concentration of 100 µM for the other peptides. (a) Representative histograms of cell distribution according to ΔΨm; (b) bar graph showing ΔΨm expressed as the mean ± SD of three independent experiments of SCC-9 tumor cells; (c) bar graph showing ΔΨm expressed as the mean ± SD of three independent experiments of SCC-25 tumor cells; (d) bar graph showing ΔΨm expressed as the mean ± SD of three independent experiments of normal FN1 cells; (e) bar graph showing ΔΨm expressed as the mean ± SD of three independent experiments of normal J774 cells. Statistical differences were obtained using ANOVA and Tukey–Kramer multiple comparison tests. * p < 0.05, ** p < 0.01, and *** p < 0.001 denote significance. ns = not significant.
(§2) Tumor (SSC-9 and SSC-25) and normal cells (FN1 and J-774) were subjected to treatment for a period of 24 h at the peptides’ IC50 concentrations. After treatment, the cells were trypsinized, centrifuged at 1200 rpm for 5 min, the supernatant was discarded, and the cells were resuspended in complete medium containing MitoRed™ (Sigma-Aldrich, USA) (200 nM/L). Subsequently, the samples were incubated in an incubator at 37 °C with 5% CO2 for 30 min. The tubes were then centrifuged, the supernatant was discarded, and the pellet was resuspended in 200 μL of FACS buffer. Readings were performed using a FACScanto flow cytometer (BD) with 10,000 events, and histograms were acquired and analyzed using FCS Express software 2.0.

SCC-9 tumor cells = experiment: as above; type: cell-based; settings: 24 h, IsCT-P and AC-AFPK-IsCT1 at IC50, others 100 µM, MitoRed, mean ± SD of three independent experiments
Method: as §1, §2

human erythrocytes = experiment: Hemolytic activity assay; type: cell-based; settings: 0.13–128 μmol L−1 in PBS, n = 3; 1% SDS positive control, PBS negative control
Method: (§3) Figure 1 (a) Helical wheel projections of the IsCT1, AFPK-IsCT1, KKK-IsCT1, and IsCT-P peptides were generated using the Heliquest server (https://heliquest.ipmc.cnrs.fr/, accessed on 15 July 2024). In these projections, yellow, gray, and green circles represent hydrophobic amino acids, while blue and pink circles denote hydrophilic amino acids. (b) Resistance to degradation assays for all peptides were performed over 6 h in a solution containing 25% fetal bovine serum (FBS). These experiments were conducted in triplicate and aliquots were collected for analysis at 0, 0.5, 1, 2, 4, and 6 h of incubation. The aliquots were subsequently analyzed using high-performance liquid chromatography (HPLC) after each incubation period. The degradation kinetics of the peptides were determined by comparing the integrated peak area associated with the peptide at the start of the experiment (t = 0 h) with the integrated peak area at subsequent time points (t = 0.5, 1, 2, 4, 6 h). (c) The hemolytic activity of synthetic peptides analogous to IsCT1 was assessed on human erythrocytes within a concentration range of 0.13–128 μmol L^−1 in phosphate-buffered saline (PBS) (n = 3). […]
Cell survival was assessed using an MTT assay. […] Absorbance was then measured at a wavelength of 540 nm using a microplate reader. […]

[1] = Resistance to degradation in 25% fetal bovine serum; type: in vitro ADME; settings: 25% fetal bovine serum in water, 37 °C, HPLC peak area vs t = 0 h, triplicate
Method: as §3, with “3). A 1% solution of sodium dodecyl sulfate (SDS) in PBS served as a positive control, while PBS alone was used as a negative control. (d) A table summarizing the sequences, molecular weights, and physicochemical properties of the IsCT1, AFPK-IsCT1, and KKK-IsCT1 peptides.” for “3).”
Stability assays were conducted using GIBCO (Waltham, MA, USA) fetal bovine serum diluted to 25% in water, as described by Torres et al.. Briefly, peptide solutions were added to the serum solution and maintained at 37 °C. The experiments were carried out in triplicate and samples were taken at 0, 0.5, 1, 2, 4, and 6 h post incubation. The degradation kinetics were monitored using liquid chromatography and the percentage of remaining peptides was calculated by integrating the peak area of the peptide.

SCC-9 cells = experiment: MTT cell viability; type: cell-based; settings: treatment 24 and 48 h (time of IC50 not given), absorbance 540 nm, N/IC50 = no IC50 for the tested concentrations, no toxicity, read-out: IC50
Method: (§4) Cell survival was assessed using an MTT assay. Tumor (SSC-9 and SSC-25) and normal cells (FN1 and J-774) were incubated in 96-well plates at a density of 10^5 cells/mL for 24 h. Subsequently, treatments were administered as described in Table 1 for 24 and 48 h. After the treatment period, the supernatant was aspirated and 100 μL of MTT at a concentration of 5 mg/mL (Calbiochem—Darmstadt, Germany) was added to the plate and incubated for 3 h at 37 °C with 5% CO2. Afterward, the content was removed and 200 μL of methanol was added to dissolve the formazan crystals. Absorbance was then measured at a wavelength of 540 nm using a microplate reader. The hemolysis assay was performed as previously reported.

FN1 cells = experiment: MTT cell viability; type: cell-based; settings: FN1 normal human fibroblasts, treatment 24 and 48 h (time of IC50 not given), absorbance 540 nm, N/IC50 = no IC50 for the tested concentrations, no toxicity
Method: as §4

J774 cells = experiment: MTT cell viability; type: cell-based; settings: J774 normal macrophages, treatment 24 and 48 h (time of IC50 not given), absorbance 540 nm, N/IC50 = no IC50 for the tested concentrations, no toxicity
Method: as §4

SCC-25 cells = experiment: MTT cell viability; type: cell-based; settings: treatment 24 and 48 h (time of IC50 not given), absorbance 540 nm, N/IC50 = no IC50 for the tested concentrations, no toxicity, read-out: IC50
Method: as §4

Substance | decrease in ΔΨm (SCC-25 tumor cells) [%] | decrease in ΔΨm (SCC-9 tumor cells) [%] | hemolytic activity (human erythrocytes) | metabolised at 0.5 h ([1]; 30 min) [%] | IC50 (SCC-9 cells) [µM] | IC50 (FN1 cells) | IC50 (J774 cells) | IC50 (SCC-25 cells) | remaining at 1 h ([1]; 1 h, read-out: peptide remaining intact after 1 h) [%] | remaining at 4 h ([1]; 4 h, read-out: peptide remaining intact after 4 h) [%] | IC50 (FN1 cells; read-out: IC50)
Ac-ALGKFWPKIKSLF-NH2 [AC-AFPK-IsCT1] | 31.5 ± 5.4 | 16.3 ± 2.7 | did not show hemolytic activity at high concentrations | 18 | 90.5 | did not exhibit cytotoxic effects; also recorded: N/IC50 | N/IC50 | 84.4 µM and 84.5 µM |  |  | 
H-ILKKIWKPIKKLF-NH2 [IsCT-P] | 44.4 ± 4.8 | 21.2 ± 5.1 | caused the hemolysis |  | 96.5 |  | N/IC50 | 81.3 µM | 70 | 18 | 80.3 µM and 80.4 µM
